Experimental data as given in ChEMBL document CHEMBL4828703, “Structure-activity relationship study of THZ531 derivatives enables the discovery of BSJ-01-175 as a dual CDK12/13 covalent inhibitor with efficacy in Ewing sarcoma” (Eur J Med Chem, 2021).
pIC50: −log10 of the molar value. Active and inactive are the calls of the source. The rule behind the calls is not given here.

Key:
[1] = Downregulation of RNA polymerase 2 CTD phosphorylation at Ser7 residue in human Jurkat cells at 1 uM incubated for 6 hrs by immunoblotting analysis; format: functional
[2] = AUClast in Swiss albino mouse at 3 mg/kg, iv measured upto 24 hrs by LC-MS/MS analysis; format: ADME, organism-based; parameters: route intravenous, dose 3 mg/kg, time <=24; details: in vivo
[3] = Antiproliferative activity against human Kelly cells harboring wild type CDK12 assessed as reduction in cell viability incubated for 72 hrs by CelTiter-Glo assay; format: functional, cell-based
[4] = Oral bioavailability in Swiss albino mouse at 10 mg/kg measured upto 24 hrs by LC-MS/MS analysis; format: ADME, organism-based; details: in vivo
[5] = molecular target: Ribosomal protein S6 kinase alpha-1 (Homo sapiens) (UniProt Q15418); assay: Inhibition of ADP(ATP)-biotin probe binding to RSK1 domain 1 in human Kelly cells at 1 uM incubated for 6 hrs by KiNativ profiling analysis; format: cell-based
Sequence of Ribosomal protein S6 kinase alpha-1 (Homo sapiens) (Q15418 whole entry, the tested form may be a part): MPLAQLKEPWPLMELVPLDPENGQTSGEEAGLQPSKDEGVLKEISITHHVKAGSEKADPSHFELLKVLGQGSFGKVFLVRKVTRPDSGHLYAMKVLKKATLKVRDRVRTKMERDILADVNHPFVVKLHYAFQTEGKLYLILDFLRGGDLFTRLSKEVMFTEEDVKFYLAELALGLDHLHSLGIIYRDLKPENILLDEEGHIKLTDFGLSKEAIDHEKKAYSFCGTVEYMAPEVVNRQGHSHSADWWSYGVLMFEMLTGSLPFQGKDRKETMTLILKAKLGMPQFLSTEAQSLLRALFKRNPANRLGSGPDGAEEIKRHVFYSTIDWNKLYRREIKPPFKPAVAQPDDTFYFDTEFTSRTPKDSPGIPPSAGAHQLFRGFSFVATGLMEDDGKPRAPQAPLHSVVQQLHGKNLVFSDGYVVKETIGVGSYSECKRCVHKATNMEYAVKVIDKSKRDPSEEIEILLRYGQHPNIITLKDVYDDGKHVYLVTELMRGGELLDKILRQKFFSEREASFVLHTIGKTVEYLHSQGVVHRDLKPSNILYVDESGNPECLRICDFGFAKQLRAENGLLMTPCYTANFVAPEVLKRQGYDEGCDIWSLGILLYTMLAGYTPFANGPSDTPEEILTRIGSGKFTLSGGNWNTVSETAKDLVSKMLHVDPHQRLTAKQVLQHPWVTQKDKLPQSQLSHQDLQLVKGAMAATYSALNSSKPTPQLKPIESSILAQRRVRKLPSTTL

[6] = molecular target: T1, Ribosomal protein S6 kinase alpha-3 (Homo sapiens, UniProt P51812); assay: Inhibition of ADP(ATP)-biotin probe binding to RSK2 domain 1 in human Kelly cells at 1 uM incubated for 6 hrs by KiNativ profiling analysis; format: cell-based
T1 sequence (P51812 whole entry, the tested form may be a part): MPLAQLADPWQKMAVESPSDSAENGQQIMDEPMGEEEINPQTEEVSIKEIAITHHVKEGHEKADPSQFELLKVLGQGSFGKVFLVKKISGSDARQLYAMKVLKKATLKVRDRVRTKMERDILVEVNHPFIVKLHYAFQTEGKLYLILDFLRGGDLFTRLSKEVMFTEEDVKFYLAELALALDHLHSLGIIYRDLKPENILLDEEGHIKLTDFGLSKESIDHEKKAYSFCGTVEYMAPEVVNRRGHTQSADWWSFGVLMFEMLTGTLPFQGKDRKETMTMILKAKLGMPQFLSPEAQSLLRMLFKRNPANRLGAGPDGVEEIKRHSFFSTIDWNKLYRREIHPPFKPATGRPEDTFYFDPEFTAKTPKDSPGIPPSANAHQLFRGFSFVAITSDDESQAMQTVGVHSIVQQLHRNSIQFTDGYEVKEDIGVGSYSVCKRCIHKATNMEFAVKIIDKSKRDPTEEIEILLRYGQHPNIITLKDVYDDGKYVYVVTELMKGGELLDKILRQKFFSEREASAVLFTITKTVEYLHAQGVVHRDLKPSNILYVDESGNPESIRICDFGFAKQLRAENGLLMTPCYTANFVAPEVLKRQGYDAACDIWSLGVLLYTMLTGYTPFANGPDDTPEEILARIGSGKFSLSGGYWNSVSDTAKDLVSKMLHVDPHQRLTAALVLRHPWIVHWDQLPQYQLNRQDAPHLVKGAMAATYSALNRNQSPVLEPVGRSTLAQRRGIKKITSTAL

[7] = molecular target: CDK12/Cyclin K (Homo sapiens, UniProt Q9NYV4); assay: Inhibition of human recombinant CDK12/CyclinK assessed as reduction in substrate phosphorylation using His-c-Myc as substrate preincubated with enzyme for 5 mins followed by substrate addition for 15 mins in presence of [gamma 32P-ATP] by radioactive kinase assay; format: protein-complex assay
[8] = Metabolic stability in mouse liver microsomes assessed as half life; format: ADME, Microsome
[9] = molecular target: Mitogen-activated protein kinase 8 (Homo sapiens) (UniProt P45983); assay: Inhibition of ADP(ATP)-biotin probe binding to JNK1 in human Kelly cells at 1 uM incubated for 6 hrs by KiNativ profiling analysis; format: cell-based
Sequence of Mitogen-activated protein kinase 8 (Homo sapiens) (P45983 whole entry): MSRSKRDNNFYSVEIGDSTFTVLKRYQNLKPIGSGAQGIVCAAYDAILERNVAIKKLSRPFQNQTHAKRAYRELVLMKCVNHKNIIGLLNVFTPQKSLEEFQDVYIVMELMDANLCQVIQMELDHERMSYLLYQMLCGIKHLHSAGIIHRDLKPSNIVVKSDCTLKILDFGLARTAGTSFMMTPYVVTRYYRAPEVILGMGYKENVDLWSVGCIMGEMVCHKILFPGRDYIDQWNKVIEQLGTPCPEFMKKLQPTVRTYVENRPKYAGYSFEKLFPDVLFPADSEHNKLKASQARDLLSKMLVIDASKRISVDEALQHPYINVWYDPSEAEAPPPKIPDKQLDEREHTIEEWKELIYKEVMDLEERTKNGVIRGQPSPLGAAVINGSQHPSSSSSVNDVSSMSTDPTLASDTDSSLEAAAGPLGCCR

[10] = molecular target: Calcium/calmodulin-dependent protein kinase type IV (Homo sapiens) (UniProt Q16566); assay: Inhibition of ADP(ATP)-biotin probe binding to CaMK4 in human Kelly cells at 1 uM incubated for 6 hrs by KiNativ profiling analysis; format: cell-based
Sequence of Calcium/calmodulin-dependent protein kinase type IV (Homo sapiens) (Q16566 whole entry): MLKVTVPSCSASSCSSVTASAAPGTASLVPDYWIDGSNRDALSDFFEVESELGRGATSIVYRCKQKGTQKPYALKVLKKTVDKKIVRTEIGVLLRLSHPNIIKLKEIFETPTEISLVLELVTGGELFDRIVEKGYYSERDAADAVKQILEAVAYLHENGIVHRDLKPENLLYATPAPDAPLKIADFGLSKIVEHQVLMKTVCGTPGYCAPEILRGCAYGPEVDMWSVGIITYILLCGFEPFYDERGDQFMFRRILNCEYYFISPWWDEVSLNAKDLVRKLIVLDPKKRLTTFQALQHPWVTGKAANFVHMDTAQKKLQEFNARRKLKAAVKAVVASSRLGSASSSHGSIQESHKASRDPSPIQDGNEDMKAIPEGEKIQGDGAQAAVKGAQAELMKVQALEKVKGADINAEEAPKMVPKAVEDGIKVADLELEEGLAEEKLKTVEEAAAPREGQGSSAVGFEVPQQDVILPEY

[11] = Downregulation of RNA polymerase 2 in human Jurkat cells at 1 uM measured after 6 hrs by immunoblotting analysis; format: functional
[12] = Half life in Swiss albino mouse at 3 mg/kg, iv measured upto 24 hrs by LC-MS/MS analysis; format: ADME, organism-based; details: in vivo
[13] = molecular target: Mitogen-activated protein kinase 9 (Homo sapiens) (UniProt P45984); assay: Inhibition of ADP(ATP)-biotin probe binding to JNK2 in human Kelly cells at 1 uM incubated for 6 hrs by KiNativ profiling analysis; format: cell-based
Sequence of Mitogen-activated protein kinase 9 (Homo sapiens) (P45984 whole entry, looked up): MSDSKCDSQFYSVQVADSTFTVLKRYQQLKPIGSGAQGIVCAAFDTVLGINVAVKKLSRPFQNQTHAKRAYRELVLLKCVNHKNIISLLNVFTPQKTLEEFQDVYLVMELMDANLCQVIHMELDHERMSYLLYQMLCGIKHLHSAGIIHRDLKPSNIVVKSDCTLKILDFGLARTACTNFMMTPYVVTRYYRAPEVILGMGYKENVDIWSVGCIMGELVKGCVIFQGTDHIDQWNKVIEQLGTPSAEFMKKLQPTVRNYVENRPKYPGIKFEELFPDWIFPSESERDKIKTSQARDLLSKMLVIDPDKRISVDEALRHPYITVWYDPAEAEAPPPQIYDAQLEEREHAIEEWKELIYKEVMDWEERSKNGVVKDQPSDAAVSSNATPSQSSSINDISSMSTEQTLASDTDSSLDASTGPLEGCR

[14] = Tmax in Swiss albino mouse at 10 mg/kg, po measured upto 24 hrs by LC-MS/MS analysis; format: ADME, organism-based; details: in vivo
[15] = molecular target: Cyclin-K (Homo sapiens) (UniProt O75909); assay: Binding affinity to CyclinK in CDK12/CyclinK complex (unknown origin) at 10-fold excess concentration incubated for 1 hr by LC-MS analysis
[16] = molecular target: T2, Cyclin-dependent kinase 12/13 (Homo sapiens) (UniProt Q14004+Q9NYV4); assay: Inhibition of CDK12/13 in human jurkat cells assessed as reduction in RNA polymerase 2 CTD phosphorylation at Ser2 residue at 1 uM measured after 6 hrs by immunoblotting analysis; format: cell-based
[17] = Downregulation of RNA polymerase 2 CTD phosphorylation at Ser7 residue in human Jurkat cells at 5 uM incubated for 6 hrs by immunoblotting analysis; format: functional
[18] = molecular target: T2, Cyclin-dependent kinase 12/13 (Homo sapiens); assay: Inhibition of CDK12/13 in human jurkat cells assessed as reduction in RNA polymerase 2 CTD phosphorylation at Ser2 residue at 2.5 uM measured after 6 hrs by immunoblotting analysis; format: cell-based
[19] = molecular target: T2, Cyclin-dependent kinase 12/13 (Homo sapiens); assay: Inhibition of THZ1-biotin binding from CDK12/13 in human Jurkat cells at 500 nM incubated for 6 hrs by CyclinK antibody based competitive pull down assay; format: cell-based
[20] = molecular target: T2, Cyclin-dependent kinase 12/13 (Homo sapiens); assay: Inhibition of CDK12/13 in human jurkat cells assessed as reduction in RNA polymerase 2 CTD phosphorylation at Ser2 residue at 0.5 uM measured after 6 hrs by immunoblotting analysis; format: cell-based
[21] = molecular target: Cyclin-dependent kinase 7 (Homo sapiens) (UniProt P50613); assay: Inhibition of THZ1-biotin binding from CDK7 in human Jurkat cells at 500 nM incubated for 6 hrs by CyclinH antibody based competitive pull down assay; format: cell-based
Sequence of Cyclin-dependent kinase 7 (Homo sapiens) (P50613 whole entry): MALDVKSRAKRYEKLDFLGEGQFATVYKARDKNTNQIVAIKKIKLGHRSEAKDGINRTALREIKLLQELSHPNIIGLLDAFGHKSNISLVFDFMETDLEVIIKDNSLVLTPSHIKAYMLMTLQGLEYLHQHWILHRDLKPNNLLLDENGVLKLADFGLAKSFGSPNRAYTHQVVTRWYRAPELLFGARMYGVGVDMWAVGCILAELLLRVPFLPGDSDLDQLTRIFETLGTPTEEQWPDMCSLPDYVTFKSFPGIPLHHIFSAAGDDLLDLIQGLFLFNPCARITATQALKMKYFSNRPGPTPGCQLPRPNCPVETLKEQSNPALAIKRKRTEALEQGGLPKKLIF

[22] = Volume of distribution at steady state in Swiss albino mouse at 3 mg/kg, iv measured upto 24 hrs by LC-MS/MS analysis; format: ADME, organism-based; details: in vivo
[23] = molecular target: DNA-dependent protein kinase catalytic subunit (Homo sapiens, UniProt P78527); assay: Inhibition of ADP(ATP)-biotin probe binding to DNAPK in human Kelly cells at 1 uM incubated for 6 hrs by KiNativ profiling analysis; format: cell-based
[24] = molecular target: T2, Cyclin-dependent kinase 12/13 (Homo sapiens); assay: Inhibition of CDK12/13 in human Jurkat cells assessed as BRCA2 gene expression at 0.5 to 1 uM incubated for 4 hrs by RT-qPCR analysis; format: cell-based; parameters: scale not given: the % may be the effect or the level left; details: dose 0.5-1 µM
[25] = molecular target: Cyclin-dependent kinase 7/ cyclin H (Homo sapiens, UniProt P50613); assay: Inhibition of CDK7/Cyclin H (unknown origin); format: protein-complex assay
Sequence of Cyclin-dependent kinase 7/ cyclin H (P51946 whole entry): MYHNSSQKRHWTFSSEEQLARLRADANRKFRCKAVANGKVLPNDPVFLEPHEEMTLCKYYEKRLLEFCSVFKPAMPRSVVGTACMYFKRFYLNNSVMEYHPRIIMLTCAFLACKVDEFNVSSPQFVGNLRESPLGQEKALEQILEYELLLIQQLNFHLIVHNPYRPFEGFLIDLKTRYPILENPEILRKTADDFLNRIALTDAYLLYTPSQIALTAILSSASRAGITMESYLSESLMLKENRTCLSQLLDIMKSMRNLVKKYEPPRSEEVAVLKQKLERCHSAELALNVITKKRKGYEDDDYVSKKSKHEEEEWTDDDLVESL
Sequence of Cyclin-dependent kinase 7/ cyclin H (P50613 whole entry): as the sequence (P50613 whole entry) above

[26] = molecular target: STE20-related kinase adapter protein beta (Homo sapiens) (UniProt Q9C0K7); assay: Inhibition of ADP(ATP)-biotin probe binding to STLK6 in human Kelly cells at 1 uM incubated for 6 hrs by KiNativ profiling analysis; format: cell-based
[27] = Cmax in Swiss albino mouse at 10 mg/kg, po measured upto 24 hrs by LC-MS/MS analysis; format: ADME, organism-based; parameters: route oral, dose 10 mg/kg, time <=24; details: in vivo
[28] = molecular target: Cyclin-dependent kinase 7 (Homo sapiens) (UniProt P50613); assay: Inhibition of THZ1-biotin binding from CDK7 in human Jurkat cells at 5 uM incubated for 6 hrs by CyclinH antibody based competitive pull down assay; format: cell-based
[29] = molecular target: Serine/threonine-protein kinase 10 (Homo sapiens) (UniProt O94804); assay: Inhibition of ADP(ATP)-biotin probe binding to LOK in human Kelly cells at 1 uM incubated for 6 hrs by KiNativ profiling analysis; format: cell-based
[30] = Downregulation of RNA polymerase 2 in human Jurkat cells at 2.5 uM measured after 6 hrs by immunoblotting analysis; format: functional
[31] = Cmax in Swiss albino mouse at 3 mg/kg, iv measured upto 24 hrs by LC-MS/MS analysis; format: ADME, organism-based; parameters: route intravenous, dose 3 mg/kg, time <=24; details: in vivo
[32] = molecular target: Cyclin-dependent kinase 12 (Homo sapiens) (UniProt Q9NYV4); assay: Inhibition of ADP(ATP)-biotin probe binding to CDK12 in human Kelly cells at 1 uM incubated for 6 hrs by KiNativ profiling analysis; format: cell-based
Sequence of Cyclin-dependent kinase 12 (Homo sapiens) (Q9NYV4 whole entry, looked up): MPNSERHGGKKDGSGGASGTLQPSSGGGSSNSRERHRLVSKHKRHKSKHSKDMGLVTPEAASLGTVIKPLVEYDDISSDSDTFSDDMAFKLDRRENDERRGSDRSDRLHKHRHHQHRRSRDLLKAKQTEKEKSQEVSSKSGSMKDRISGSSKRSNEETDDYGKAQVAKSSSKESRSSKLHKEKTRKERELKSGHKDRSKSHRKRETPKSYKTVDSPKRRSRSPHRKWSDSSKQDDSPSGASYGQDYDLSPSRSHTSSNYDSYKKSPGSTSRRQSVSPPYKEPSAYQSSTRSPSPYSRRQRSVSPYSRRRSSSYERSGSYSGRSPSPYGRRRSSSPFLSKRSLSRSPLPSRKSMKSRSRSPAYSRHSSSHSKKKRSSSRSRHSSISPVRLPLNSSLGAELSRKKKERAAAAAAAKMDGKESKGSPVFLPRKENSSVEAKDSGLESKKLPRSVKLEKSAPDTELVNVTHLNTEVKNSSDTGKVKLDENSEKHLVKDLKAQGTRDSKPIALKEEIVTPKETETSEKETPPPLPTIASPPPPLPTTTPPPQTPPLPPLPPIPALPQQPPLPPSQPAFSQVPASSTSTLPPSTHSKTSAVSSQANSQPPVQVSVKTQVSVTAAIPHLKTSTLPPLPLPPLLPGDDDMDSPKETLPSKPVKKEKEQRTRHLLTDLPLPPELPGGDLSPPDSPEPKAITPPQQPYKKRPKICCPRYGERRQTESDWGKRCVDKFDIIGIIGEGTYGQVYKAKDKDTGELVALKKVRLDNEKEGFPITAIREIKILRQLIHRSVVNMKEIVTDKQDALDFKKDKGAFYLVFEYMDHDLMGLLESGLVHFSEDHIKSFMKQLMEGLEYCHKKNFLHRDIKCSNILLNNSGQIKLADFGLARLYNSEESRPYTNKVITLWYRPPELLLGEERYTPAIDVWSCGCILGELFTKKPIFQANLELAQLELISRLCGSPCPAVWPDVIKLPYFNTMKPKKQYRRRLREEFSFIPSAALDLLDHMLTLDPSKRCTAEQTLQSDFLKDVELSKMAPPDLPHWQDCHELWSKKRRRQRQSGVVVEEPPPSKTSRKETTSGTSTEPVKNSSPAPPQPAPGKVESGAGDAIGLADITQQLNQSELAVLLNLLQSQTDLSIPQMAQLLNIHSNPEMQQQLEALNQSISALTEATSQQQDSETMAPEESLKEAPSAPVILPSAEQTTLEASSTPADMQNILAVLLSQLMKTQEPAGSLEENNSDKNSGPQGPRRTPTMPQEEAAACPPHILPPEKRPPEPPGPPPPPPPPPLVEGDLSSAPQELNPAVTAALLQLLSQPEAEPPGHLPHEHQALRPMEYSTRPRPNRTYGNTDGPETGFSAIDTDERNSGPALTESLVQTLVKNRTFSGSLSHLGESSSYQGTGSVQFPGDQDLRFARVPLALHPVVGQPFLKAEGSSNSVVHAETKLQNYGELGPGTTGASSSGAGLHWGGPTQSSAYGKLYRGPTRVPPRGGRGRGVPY

[33] = molecular target: Mitogen-activated protein kinase 10 (Homo sapiens) (UniProt P53779); assay: Inhibition of ADP(ATP)-biotin probe binding to JNK3 in human Kelly cells at 1 uM incubated for 6 hrs by KiNativ profiling analysis; format: cell-based
[34] = Downregulation of RNA polymerase 2 in human Jurkat cells at 0.5 uM measured after 6 hrs by immunoblotting analysis; format: functional
[35] = molecular target: RAF proto-oncogene serine/threonine-protein kinase (Homo sapiens) (UniProt P04049); assay: Inhibition of ADP(ATP)-biotin probe binding to RAF1 in human Kelly cells at 1 uM incubated for 6 hrs by KiNativ profiling analysis; format: cell-based
[36] = molecular target: T1, Ribosomal protein S6 kinase alpha-3; assay: Inhibition of human RSK2 by Invitrogen ADAPTA or Z'LYTE biochemical kinase assay

AUClast [2]: 1832 ng·h/mL
F [4]: 17%
inhibition [5]: 35.4%
inhibition [6]: 46%
pIC50 [7]: 6.81
t1/2 [8]: 8 min
inhibition [9]: 45.9%
inhibition [10]: 38.2%
t1/2 [12]: 2.2 h
inhibition [13]: 45.9%
Tmax [14]: 2 h
Activity [15]: inactive
inhibition [16]: 78%
inhibition [18]: 87%
inhibition [19]: Active
inhibition [20]: 45%
inhibition [21]: inactive
Vdss [22]: 3.9 L/kg
inhibition [23]: 38.3%
Activity [24]: 30%
pIC50 [25]: 6.73
inhibition [26]: 44.5%
Cmax [27]: 272 ng/mL
inhibition [28]: Active
inhibition [29]: 33.9%
Cmax [31]: 1511 ng/mL
inhibition [32]: 76.8%
inhibition [33]: 45.9%
inhibition [35]: 37.8%
pIC50 [36]: 5.35
SMILES: CN(C)C/C=C/C(=O)Nc1ccc(O[C@@H]2CCC[C@@H](Nc3ncc(Cl)c(-c4c[nH]c5ccccc45)n3)C2)cc1
inhibition at 1 µM [1]: 41%
pIC50 [3]: 7.37
inhibition at 1 µM [11]: 13%
inhibition at 5 µM [17]: 74%
inhibition at 2.5 µM [30]: 15%
inhibition at 0.5 µM [34]: 0%
